Measured values published in publication PMC10454409, “Hybrids of Sterically Hindered Phenols and Diaryl Ureas: Synthesis, Switch from Antioxidant Activity to ROS Generation and Induction of Apoptosis” (International Journal of Molecular Sciences, 2023).
Where two headings read alike, the source gives them in different places.

Tests used:
[1] = system: HuTu 80 cells (human duodenal adenocarcinoma); experiment: MTT cytotoxicity test, HuTu 80; format: cell-based
Procedure, shortened: (§1)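 Cells seeded at 5 × 10^3 per well and grown at 37 °C to monolayer, then exposed to compounds for 48 h. Viability by MTT (0.5 mg/mL, serum-free medium, 4 h, 37 °C), formazan dissolved in DMSO, OD 540 nm. IC50 estimated from triplicate experiments.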

[2] = system: Chang liver cells (human liver cells, normal cell line); experiment: MTT cytotoxicity test, Chang liver normal cells; format: cell-based; details: 48 h incubation
Description: For the experiments, we used tumor cell cultures M-HeLa clone 11 (epithelioid carcinoma of the cervix, subline HeLa., clone M-HeLa), HuTu 80 (human duodenal adenocarcinoma) and MCF7 (human breast adenocarcinoma (pleural fluid)) from the collection of the Institute of Cytology, Russian Academy of Sciences (St. Petersburg); human liver cells (Chang liver) from the collection of the Research Institute of Virology at the Russian Academy of Medical Sciences (Moscow); and SH-SY5Y (neuroblastoma)from the Laboratory of Tumor Cell Genetics at the Scientific Research Institute of Carcinogenesis N.N. Blokhin National Medical Research Center of Oncology.
The cytotoxic effect on cells was determined using the colorimetric method of cell proliferation—the MTT test. NADP-H-dependent cellular oxidoreductase enzymes can, under certain conditions, reflect the number of viable cells. These enzymes are able to reduce the tetrazolium dye (MTT)-3-(4,5-dimethylthiazol-2-yl)-2,5-diphenyl-tetrazolium bromide to insoluble blue-violet formazan, which crystallizes inside the cell. The amount of formazan formed is proportional to the number of cells with active metabolism.
Cells were seeded on a 96-well Nunc plate at a concentration of 5 × 10^3 cells per well in a volume of 100 μL of medium and cultured in a CO2 incubator at 37 °C until a monolayer was formed. […] After 48 h, the nutrient medium was removed from the plates and 100 µL of the nutrient medium without serum with MTT at a concentration of 0.5 mg/mL was added and incubated for 4 h at 37 °C. Formazan crystals were […] 100 µL of DMSO in each well. Optical density was recorded at 540 nm on an in vitro logic microplate reader (Russia). The experiments for all compounds were repeated in triplicate.
IC50 values were estimated using the Quest Graph IC50 Calculator (AAT Bioquest, Inc., Sunnyvale, CA, USA) (Version 2022) (accessed on 25 June 2022).

[3] = system: HuTu 80 cells; experiment: Intracellular ROS level, CellROX Deep Red flow cytometry; format: cell-based, human; details: 48 h incubation, maximum concentration (IC50)
[4] = system: SH-SY5Y cells (neuroblastoma); experiment: MTT cytotoxicity test, SH-SY5Y; format: cell-based; details: Homo sapiens, SH-SY5Y; MTT test; 24 h incubation per text, 48 h per method
Procedure, shortened: as §1

[5] = system: M-HeLa cells (human cervix epithelioid carcinoma); experiment: MTT cytotoxicity test, M-HeLa; format: cell-based
Procedure, shortened: as §1

[6] = system: MCF-7 cells (human breast adenocarcinoma); experiment: MTT cytotoxicity test, MCF-7; format: cell-based; details: Homo sapiens, MCF7, MTT test; 24 h incubation per text, 48 h per method
Procedure, shortened: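 Viable MCF-7 cells quantified by MTT reduction to formazan, dissolved in DMSO and read at 540 nm. Triplicate experiments.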

[7] = system: SH-SY5Y neuroblastoma cells; experiment: Glycolysis stress test (Seahorse XF96e, ECAR); format: cell-based; details: compound 100 µM
Experimental: We studied the ability of compounds to inhibit aerobic glycolysis using the Agilent Seahorse XF96e Analyzer (Seahorse Bioscience, North Billerica, MA, USA) assay of cellular metabolism on the level of proton production in samples examined on the SH-SY5Y neuroblastoma cell line using glycolysis stress tests. The extracellular acidification rate of the medium was measured in real time, which allowed us to assess the intensity of glycolysis in the cells by recording the main parameters of glycolytic function: basal glycolysis, glycolytic capacity and glycolytic reserve. Glycolytic capacity describes the maximum amount of glycolysis/glucose breakdown the cells can perform acutely, whereas glycolytic reserve is defined as the difference between the basal and maximal glycolytic capacity.
The ability of synthesized compounds to modulate […] glycolysis was studied using the Agilent Seahorse XF96e Analyzer (Seahorse Bioscience, Billerica, MA, USA) on the neuroblastoma SH-SY5Y cell line (40,000 cells per well) as described earlier.
Glycolysis was measured by subtracting the maximum rate of extracellular acidification of the medium before glucose injection from the maximum rate before oligomycin injection. Glycolytic capacity was measured by subtracting the maximum velocity value before glucose injection from the maximum velocity value after oligomycin injection. Glycolytic reserve was defined as the difference between glycolytic capacity and glycolysis.
Figure 6 Effect of synthesized compounds on the glycolytic profile of (a–c) SH-SY5Y tumor cells and (d) calculated parameters of glycolytic function. […] The concentration of compounds was 100 µM, glucose—10 mM, oligomycin—1 µM и 2-fluoro-2-deoxy-D-glucose—25 mM. Data are presented as mean±error of the mean (n = 3). Statistical significance was assessed using one-way ANOVA and Dunnett’s multiple comparison tests, where **** p < 0.0001, *** p < 0.001, ** p < 0.01 and * p < 0.05 vs. control.

[8] = system: isolated rat liver mitochondria; experiment: Membrane potential of isolated mitochondria (Safranin A); format: biochemical; details: for Depolarization of mitochondrial membrane: isolated mitochondria
Experimental: The membrane potential of rat […] mitochondria was measured with a Victor 3 plate analyzer (Perkin Elmer, Hamburg, Germany) using the potential-dependent indicator Safranin A [57]. The mitochondrial preparation was diluted in a buffer containing mannitol (225 mM) (Dia-M, Moscow, Russia), sucrose (75 mM) (Sigma Aldrich, Saint Louis, MO, USA), HEPES (10 mM) (Gibco, Scotland, UK), EGTA (20 µM) (Dia-M, Moscow, Russia) and KH2PO4 (1 mM) at pH = 7.4 at a ratio of 0.5 mg of protein to 1 mL of medium. Safranin A (5 µM) was added to the suspension immediately before the start of the measurement. The organelles were then energized by potassium succinate (5 mM) in the presence of rotenone (1 µM). Mitochondrial pore opening was induced by the addition of CaCl2 (25 µM).
Figure 8 Effect of the synthesized compounds on the membrane potential of rat liver mitochondria. (a) Kinetic lines of transmembrane potential changes at λex = 458 nm and λem = 590 nm. The concentration of the test substances was 100 µM. (b) Calculated parameters of % depolarization relative to control samples. Statistical significance was assessed using one-way ANOVA and Dunnett’s multiple comparison tests, where **** p < 0.0001 vs. control. (c) Concentration dependence of the effects of 11b and 17b on mitochondrial membrane potential. The concentration of the test substances was from 20 to 200 µM. Concentration of ions; Ca^2+—25 µM. Mitochondria were energized by potassium succinate and rotenone. Data are presented as mean±error of the mean (n = 3).

CCOP(=O)(OCC)C(c1cc(C(C)(C)C)c(O)c(C(C)(C)C)c1)c1ccc(NC(=O)Nc2ccc([N+](=O)[O-])cc2)cc1NC(=O)Nc1ccc([N+](=O)[O-])cc1 (centres unmarked) [17b]
IC50 ([1]; Homo sapiens, HuTu80, read-out: IC50, HuTu 80): < 15 µM
IC50 ([1]; read-out: IC50, HuTu 80): 13.2 µM
IC50 [2]: 74 ± 5.9 µM
Intracellular ROS level [3]: 400.2 ± 5.2%
IC50 [4]: 54.8 ± 2.1 µM
IC50 ([5]; Homo sapiens, M-HeLa, MTT test, 24 h incubation per text, 48 h per method): 24.3 ± 1.9 µM
SI, selectivity index relative to Chang liver, M-HeLa ([5]; M-HeLa vs Chang liver): ~3
IC50 [6]: 51 ± 4.2 µM
Glycolytic reserve [7]: ability to decrease glycolytic reserves
Glycolysis: rate of extracellular acidification after saturating glucose ([7]; glucose 10 mM): decrease in the rate of extracellular acidification
Glycolytic capacity ([7]; oligomycin 1 µM): decrease in glycolytic capacity
Depolarization of mitochondrial membrane ([8]; compound 100 μM): 50%
Depolarization of mitochondrial membrane ([8]; compound 200 μM): ~100%
Depolarization relative to control (class in Figure 8b) ([8]; isolated rat liver mitochondria, compound 100 µM): High Depolarization
